{"source": "patent US20140309291A1", "about": "“Compositions and Methods for Increasing Stress Resilience” (The Children's Hospital of Philadelphia, priority 2011, published 2014)", "key": {"[1]": {"biological_target": "S1P3 receptor (Homo sapiens, UniProt Q99500)", "sequence (Q99500 whole entry)": "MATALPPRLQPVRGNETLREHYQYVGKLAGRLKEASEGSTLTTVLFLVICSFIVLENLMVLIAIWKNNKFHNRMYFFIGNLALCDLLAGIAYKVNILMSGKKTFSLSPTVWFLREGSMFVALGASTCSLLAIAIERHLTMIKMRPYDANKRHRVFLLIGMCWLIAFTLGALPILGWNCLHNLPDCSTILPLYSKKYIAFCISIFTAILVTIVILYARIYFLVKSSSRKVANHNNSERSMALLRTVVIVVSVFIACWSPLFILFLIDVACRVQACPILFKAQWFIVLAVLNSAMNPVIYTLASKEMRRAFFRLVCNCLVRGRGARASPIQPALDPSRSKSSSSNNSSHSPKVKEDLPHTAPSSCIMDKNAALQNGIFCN", "conditions": "multiple Sph receptors, including the S1P3 receptor; cited from earlier work"}, "[2]": {"test": "social interaction test of anxiety after social defeat stress", "type": "in vivo, rats", "experimental": "Animals were exposed to 7 days of social defeat stress. During these 7 days of defeat stress the average latency to defeat was observed. Based on this latency to defeat, animals were either classified as short latency (SL, defeat <300 seconds) or long latency (LL, defeat >300 seconds).\nFollowing 7 days of defeat, the SL and LL groups were divided into two separate treatment groups receiving either vehicle or FTY720, 1 hour prior to social defeat stress on the following 3 days. Defeat latencies were recorded. Additionally, 48 hours following the end of social defeat stress, animals were tested in the social interaction test of anxiety."}, "[3]": {"test": "social defeat paradigm (defeat latency)", "type": "in vivo, rats", "conditions": "SL (short latency, vulnerable) animals; drug given 1 hour prior to social defeat stress on 3 days following 7 days of defeat; p=0.0726 (FIG. 2A)", "source_text": "The social defeat paradigm used in these studies was modified from the resident-intruder model (Miczek, K. A. (1979) Psychopharmacology (Berl) 60:253-259). Rats were randomly assigned to either a social defeat or control group for a consecutive 7 days (Bhatnagar et al. (2006) J. Neuroendocrinol., 18:13-24; Buwalda et al. (1999) J. Neuroendocrinol., 11:513-520). During each episode of social stress, a rat was placed into the home cage territory of an unfamiliar Long-Evans resident previously screened for high aggression (Bhatnagar et al. (2006) J. Neuroendocrinol., 18:13-24; Buwalda et al. (1999) J. Neuroendocrinol., 11:513-520). […] After defeat, a wire mesh enclosure was placed in the cage to prevent physical contact between the resident and intruder but allowing visual, auditory, and olfactory contact for the remainder of the 30-minute defeat session. Latency to assume a submissive posture (defeat) was recorded and averaged over the seven daily defeat exposures. […] Rats were returned to their home cage after each session, and body weight was recorded on days 1 and 8. […]\nFollowing 7 days of defeat, the SL and LL groups were divided into two separate treatment groups receiving either vehicle or FTY720, 1 hour prior to social defeat stress on the following 3 days. Defeat latencies were recorded. […]"}}, "data": [{"smiles": "CCCCCCCCc1ccc(CCC(N)(CO)CO)cc1", "note": "[FTY720]", "values": [{"measurement": "agonist activity at Sph receptors", "setting": "[1]", "result": "potent agonist"}, {"measurement": "social interaction time", "setting": "[2]; SL animals, tested 48 hours following the end of social defeat stress, p=0.0049 (FIG. 2B)", "result": "prevented the decreased interaction time"}, {"measurement": "effect of the drug in resilient and control animals", "setting": "[2]; resilient LL rats or control rats", "result": "no effects"}, {"measurement": "defeat latency", "setting": "[3]", "result": "tended to increase defeat latency of SL animals to the level of LL animals"}]}]}
